Laboratory results from patent US20010016731A1, “Methods and apparatus for accelerated orthokeratology” (priority 1998, published 2001).

Key:
rabbit's eyes (cornea) = test: Experiment 3: live rabbit eye, EYESYS topography and slit-lamp; assay type: in vivo; details: glutaric anhydride 20 mg/ml in pH 8.5 phosphate buffer, contact lens, 0.3M sodium persulfate, UV two 30 second bursts
Protocol: Third set of experiments using a live rabbit. Both the EYESYS topographical system and EFOS Ultracure 100SS were available. The rabbit's eyes were examined by slit-lamp and EYESYS. Topographical profiles were printed. The control eye was left untreated. The experimental eye was exposed to 0.02M phosphate buffer, pH 8.5, and treated with glutaric anhydride at 20 mg/ml in pH 8.5 phosphate buffer followed by application of a contact lens. The eye was then washed with 0.02M phosphate buffer, pH 8.5 to remove residual glutaric acid, soaked with buffer containing 0.3M sodium persulfate and exposed to UV light for two 30 second bursts with the contact lens in place. Both the control and treated eyes were examined by slit-lamp and EYESYS. Topographical profiles were printed.

[1] = system: enucleated pig eyes (cornea); test: Experiment 2: enucleated pig eyes, EYESYS topographical mapping and slit lamp; details: 0.3M sodium persulfate, UV about 30 seconds
Protocol: Second set of experiments also using enucleated pig eyes. an EYESYS topographical system was available to perform topographical mapping of the eyes before and after treatment. In addition, the EFOS Ultracure 100SS was available for UV light treatment. In a control part of the experiment, an eye was examined using a slit lamp and using the EYESYS system. Neither glutaric anhydride nor sodium persulfate were administered prior to application of UV light exposure. However, buffers were administered to simulate full treatment. […] In a second part of the experiment, a second pig eye was examined by slit lamp, and EYESYS. Topographical profiles were printed. The eye was them soaked in phosphate buffer at pH 8.5 for 2 minutes. Glutaric anhydride at 10 mg/ml was prepared in an alcohol solution and immediately administered to the eye. A contact lens was applied to the eye and held in place for 1 minute. The eye was then soaked in a sodium persulfate solution (0.3M sodium persulfate in pH 8.5 buffer) with the lens still in place. After several one (1) minute soaks in the sodium persulfate solution, the eye was exposed to UV light for about 30 seconds. The lens was removed and the eye washed with phosphate buffer, pH 7.2. The eye was then examined by slit lamp and EYESYS. […] In a third part of the experiment, a third eye was treated the same as above, expect that the glutaric anhydride was delivered in a phosphate buffer, pH 8.5, in an attempt to prevent the clouding observed using alcohol.

[2] = system: enucleated pig eyes (cornea)
[3] = glutaric anhydride 10 mg/ml in alcohol solution, contact lens 1 minute
[4] = contact lens without destabilization, sodium persulfate solution then UV about 30 seconds

## O=C1CCCC(=O)O1 [glutaric anhydride]
rabbit's eyes (cornea)
  slit-lamp examination of treated eye: some corneal haze
  surface topography of treated eye (EYESYS): obvious change in surface topography
  time for corneal haze to clear: about 1 hour
[1]; [3]
  EYESYS examination (eye topography): eye topography had been changed
  slit lamp examination (corneal clouding): some cloudiness
[1]; glutaric anhydride delivered in phosphate buffer pH 8.5, contact lens
  EYESYS examination (eye topography): topographical changes appearing to match the curvature of the applied contact lens
[1]; glutaric anhydride delivered in phosphate buffer pH 8.5, contact lens, compared with alcohol solution
  slit lamp examination (corneal clouding): much less corneal clouding
[2]; 10 mg/ml glutaric anhydride 1 minute, contact lens, 0.3M sodium persulfate, UV 20 seconds
  indentations and ridges created by the lens: observed immediately post-treatment and 1 hour after treatment
[2]; 10 mg/ml glutaric anhydride 1 minute, contact lens, 0.3M sodium persulfate, UV 20 seconds, pretreatment 36.75/37.5
  K-readings after UV treatment: too steep to read and rather distorted

## O=S(=O)([O-])OOS(=O)(=O)[O-].[Na+].[Na+] [sodium persulfate]
[2]; [4]
  persistence of ridge created by the contact lens: visible after 1 hour
  slit-lamp appearance of eyes after treatment: clear
